Patent publication US4914197A, “Novel phosphoric diesters” (Senju Pharmaceutical Co., Ltd., priority 1986, dated 1990)
Values joined by “and” are separate entries in the source; they are usually repeats but may differ in a detail not shown here. Identical values can stand only once.

Experiments:
rabbits eye = assay: Topical antiinflammatory effect, anterior chamber paracentesis inflammation model of the rabbits eye; type: in vivo, female white rabbits; conditions: 0.1% ophthalmic solution; for % Inhibition: inhibition of increase in protein of secondary aqueous humor vs control; for Increase in protein: secondary minus primary aqueous humor (1.5 hours apart), 10 μl at 2, 1 and 0.5 hour before paracentesis, control 25.5
Description: The antiinflammatory effect of the compound according to the present invention was investigated in the anterior chamber paracentesis inflammation model of the rabbits eye.
Method: Using female white rabbits, a 0.1% ophthalmic solution of L-ascorbyl tocopheryl phosphate sodium and, as a control, physiological saline were instilled into the bilateral eyes of rabbits in volumes of 10 μl each at 2, 1 and 0.5 hour before peracentesis and using a 27-gauge needle about 200 μl of anterior chamber aqueous humor was collected from each eye (primary aqueous humor). Then, after an interval of 1.5 hours, the aqueous humor was collected again in the same manner (secondary aqueous humor). The protein content of each aqueous sample was determined by the method of Lowry and the increases in the amount of protein (protein content of secondary aqueous humor-protein content of primary aqueous humor) in the respective groups were compared to evaluate the antiinflammatory effect of each test substance.

[1] = system: back skin of Hartly guinea pigs; assay: Inhibitory effect on ultraviolet-induced erythema; type: in vivo; design: key to Degree of erythema, After 1 hour, Right / Degree of erythema, After 1 hour, Left / Degree of erythema, After 2 hours, Right / Degree of erythema, After 2 hours, Left: 0: No erythema; 1: Slight erythema; 2: Erythema without a distinct margin; 3: Erythema with a distinct margin
Description: Method: The back hairs of Hartly guinea pigs were clipped with an electric clipper and shaved with an electric razor. Then, a cloth with two holes 11 mm in diameter and 4 cm apart was appliedto the back for positioning and a 1 (w/v) % aqueous solution of δ-EPC (adjusted to pH 6.0) and, as control, water were applied 3 times in 100 μl portions each at 1-hour intervals around the sites of said holes over an area 4 cm in diameter. One hour after the final application, said cloth with small holes was applied again and the exposed skin areas was irradiated with ultraviolet rays at 1700 luxes for 360 seconds. Then, after 1 and 2 hours, respectively, the back was grossly examined for erythema. […]
Erythema without a distinct margin
Erythema with a distinct margin

[2] = 1 (w/v) % aqueous solution pH 6.0, 3 x 100 μl, one animal per line, control 2, 2, 2, 2
[3] = 1 (w/v) % aqueous solution pH 6.0, 3 x 100 μl, one animal per line, control 2, 3, 2, 2

Row | Compound | % Inhibition (rabbits eye) [%] | Increase in protein (rabbits eye) | Degree of erythema, After 1 hour, Left [1, 2] | Degree of erythema, After 2 hours, Left [1, 2] | Degree of erythema, After 1 hour, Right [1, 3] | Degree of erythema, After 2 hours, Right [1, 3] | antiinflammatory effect compared with the control group ([1]; UV-induced erythema, guinea pigs)
1 | Cc1cc(OP(=O)(O)OC2=C(O)[C@@H]([C@@H](O)CO)OC2=O)cc2c1O[C@](C)(CCC[C@H](C)CCC[C@H](C)CCCC(C)C)CC2 [δ-EPC, L-Ascorbyl D-δ-tocopheryl phosphate sodium] | 40.0 | 15.3 | 0 and 1 | 0 and 1 | 1 | 1 | significant antiinflammatory effect
2 | Cc1c(OP(=O)(O)OC2=C(O)[C@@H]([C@@H](O)CO)OC2=O)cc2c(c1C)OC(C)(CCCC(C)CCCC(C)CCCC(C)C)CC2 (mixture of isomers) [γ-EPC, L-Ascorbyl DL-γ-tocopheryl phosphate sodium] | 36.5 | 16.2 |  |  |  |  | 
3 | C[C@@H]1C[C@H]2[C@@H]3CCC4=CC(=O)C=C[C@]4(C)[C@@]3(F)[C@@H](O)C[C@]2(C)[C@@]1(O)C(=O)CO [DEX, Dexamethasone, reference compound] | 18.4 | 20.8 |  |  |  |  | 
4 | Cc1cc(OP(=O)(O)OC2=C(O)[C@@H]([C@@H](O)CO)OC2=O)c(C)c2c1OC(C)(CCCC(C)CCCC(C)CCCC(C)C)CC2 (mixture of isomers) [β-EPC, L-Ascorbyl DL-β-tocopheryl phosphate sodium] | 37.3 | 16.0 |  |  |  |  | 
